According to ChEMBL document CHEMBL5325395, “Design, synthesis and anti-ovarian cancer activities of thieno[2,3-d]pyrimidine based chimeric BRD4 inhibitor/nitric oxide-donator” (Eur J Med Chem, 2023):
pIC50: −log10 of the molar value. Active and inactive are the calls of the source. The rule behind the calls is not given here.

Columns and labels:
[1] = target: Bromodomain-containing protein 4 (Homo sapiens, UniProt O60885); experiment: Inhibition of BRD4 (unknown origin)
SK-OV-3 [2] = experiment: Antiproliferative activity against human SK-OV-3 cells assessed as reduction in cell viability incubated for 24 hrs by CCK8 assay; assay type: functional, cell-based; conditions: SK-OV-3, 24 h
OVCAR-3 = experiment: Antiproliferative activity against human OVCAR-3 cells assessed as reduction in cell viability incubated for 24 hrs by CCK8 assay; assay type: functional, cell-based; conditions: OVCAR-3, 24 h
SW626 = experiment: Antiproliferative activity against human SW626 cells assessed as reduction in cell viability incubated for 24 hrs by CCK8 assay; assay type: functional, cell-based; conditions: SW626, 24 h
ES-2 = experiment: Antiproliferative activity against human ES2 cells assessed as reduction in cell viability incubated for 24 hrs by CCK8 assay; assay type: functional, cell-based; conditions: ES-2, 24 h
A2780 = experiment: Antiproliferative activity against human A2780 cells assessed as reduction in cell viability incubated for 24 hrs by CCK8 assay; assay type: functional, cell-based; conditions: A2780, 24 h
[3] = Induction of NO release in phosphate buffer at 0.5 hrs by Griess reagent based spectrophotometer analysis; assay type: functional
[4] = Induction of NO release in phosphate buffer at 1 hr by Griess reagent based spectrophotometer analysis; assay type: functional
[5] = Induction of NO release in phosphate buffer at 2 hrs by Griess reagent based spectrophotometer analysis; assay type: functional
[6] = Induction of NO release in phosphate buffer at 3 hrs by Griess reagent based spectrophotometer analysis; assay type: functional
[7] = Induction of NO release in phosphate buffer at 4 hrs by Griess reagent based spectrophotometer analysis; assay type: functional
[8] = Induction of NO release in phosphate buffer at 6 hrs by Griess reagent based spectrophotometer analysis; assay type: functional
[9] = Induction of NO release in phosphate buffer at 24 hrs by Griess reagent based spectrophotometer analysis; assay type: functional
SK-OV-3 [10] = experiment: Induction of autophagy in human SK-OV-3 cells assessed as reduction in cell viability at 1 mmol/L incubated for 24 hrs by CCK8 assay; assay type: functional, cell-based
SK-OV-3 [11] = experiment: Induction of autophagy in human SK-OV-3 cells assessed as reduction in cell viability at 100 nmol/L incubated for 24 hrs by CCK8 assay; assay type: functional, cell-based
Mus musculus = experiment: In vivo inhibition of BRD4 in BALB/c nude mouse xenografted with human SK-OV-3 cells assessed as reduction in c-Myc expression at 30 mg/kg, ip administered for 19 days by immunohistochemical analysis; assay type: functional, organism-based; conditions: time 19.0 day

Row | Structure (SMILES) | pIC50 [1] | pIC50 (SK-OV-3 [2]) | pIC50 (OVCAR-3) | pIC50 (SW626) | pIC50 (ES-2) | pIC50 (A2780) | Activity [3] | Activity [4] | Activity [5] | Activity [6] | Activity [7] | Activity [8] | Activity [9] | Activity (SK-OV-3 [10]) | Activity (SK-OV-3 [11]) | inhibition (Mus musculus)
1 | Cc1cc(-c2nc3sc4c(c3c(=O)[nH]2)CCN(C)C4)cc(C)c1OCCCC(=O)OCc1c(-c2ccccc2)no[n+]1[O-] | 5.77 | 5.50 | 4.86 | 5.12 | 4.72 | 5.14 | 0.063 µmol/L | 0.068 µmol/L | 0.068 µmol/L | 0.056 µmol/L | 0.066 µmol/L | 0.117 µmol/L | 0.249 µmol/L | – | – | –
2 | Cc1cc(-c2nc3sc4c(c3c(=O)[nH]2)CCN(C)C4)cc(C)c1OCCCCO[N+](=O)[O-] | 5.72 | 4.77 | 4.82 | 4.78 | 4.79 | 4.77 | 0.03 µmol/L | 0.05 µmol/L | 0.037 µmol/L | 0.05 µmol/L | 0.052 µmol/L | 0.065 µmol/L | 0.173 µmol/L | – | – | –
3 | Cc1cc(-c2nc3sc4c(c3c(=O)[nH]2)CCN(C)C4)cc(C)c1OCCCCCC(=O)OCc1c(-c2ccccc2)no[n+]1[O-] | 5.87 | 5.77 | 5.27 | 4.90 | 4.89 | 5.01 | 0.063 µmol/L | 0.068 µmol/L | 0.068 µmol/L | 0.056 µmol/L | 0.066 µmol/L | 0.117 µmol/L | 0.249 µmol/L | – | – | –
4 | Cc1cc(-c2nc3sc4c(c3c(=O)[nH]2)CCN(C)C4)cc(C)c1OCCCCCCOC(=O)c1no[n+]([O-])c1C | 5.63 | 5.20 | 5.15 | 4.92 | 5.33 | 4.88 | 0.022 µmol/L | 0.027 µmol/L | 0.028 µmol/L | 0.026 µmol/L | 0.036 µmol/L | 0.044 µmol/L | 0.154 µmol/L | – | – | –
5 | Cc1cc(-c2nc3sc4c(c3c(=O)[nH]2)CCN(C)C4)cc(C)c1OCCCCCC(=O)OCc1no[n+]([O-])c1C | 5.71 | 4.92 | 5.16 | 5.24 | 5.33 | 5.16 | 0.02 µmol/L | 0.03 µmol/L | 0.033 µmol/L | 0.036 µmol/L | 0.04 µmol/L | 0.044 µmol/L | 0.154 µmol/L | – | – | –
6 | Cc1cc(-c2nc3sc4c(c3c(=O)[nH]2)CCN(C)C4)cc(C)c1OCCCC(=O)OCc1no[n+]([O-])c1C | 5.65 | 5.10 | 5.26 | 4.87 | 4.84 | 4.76 | 0.023 µmol/L | 0.029 µmol/L | 0.03 µmol/L | 0.027 µmol/L | 0.035 µmol/L | 0.036 µmol/L | 0.149 µmol/L | – | – | –
7 | COc1cc(OC)c2c(=O)[nH]c(-c3cc(C)c(OCCO)c(C)c3)nc2c1 [APABETALONE] | – | 5.15 | 4.77 | 5.07 | 5.10 | 3.91 | – | – | – | – | – | – | – | – | – | –
8 | Cc1cc(-c2nc3sc4c(c3c(=O)[nH]2)CCN(C)C4)cc(C)c1OCC(=O)OCc1no[n+]([O-])c1C | 5.92 | 5.79 | 5.43 | 5.01 | 5.05 | 5.27 | 0.028 µmol/L | 0.04 µmol/L | 0.025 µmol/L | 0.033 µmol/L | 0.037 µmol/L | 0.042 µmol/L | 0.169 µmol/L | – | – | –
9 | Cc1cc(-c2nc3sc4c(c3c(=O)[nH]2)CCN(C)C4)cc(C)c1OCCCCCCO[N+](=O)[O-] | 5.65 | 5.41 | 4.75 | 4.77 | 4.80 | 4.85 | 0.029 µmol/L | 0.038 µmol/L | 0.03 µmol/L | 0.03 µmol/L | 0.036 µmol/L | 0.037 µmol/L | 0.166 µmol/L | – | – | –
10 | CCOC(=O)N1CCN(/[N+]([O-])=N/Oc2ccc([N+](=O)[O-])cc2[N+](=O)[O-])CC1 | – | 4.73 | < 4.70 | < 4.70 | < 4.70 | < 4.70 | – | – | – | – | – | – | – | – | – | –
11 | Cn1cnc(N)c2ncnc1-2 | – | – | – | – | – | – | – | – | – | – | – | – | – | Active | – | –
12 | CO/C1=C\C(C)=C\[C@@H](C)[C@@H](O)[C@@H](C)C/C(C)=C/C=C/[C@H](OC)[C@@H]([C@@H](C)[C@@H](O)[C@H](C)[C@@]2(O)C[C@@H](O)[C@H](C)[C@@H](C(C)C)O2)OC1=O | – | – | – | – | – | – | – | – | – | – | – | – | – | – | inactive | –
13 | Cc1cc(-c2nc3sc4c(c3c(=O)[nH]2)CCN(C)C4)cc(C)c1O | – | – | – | – | – | – | – | – | – | – | – | – | – | – | – | Active
